Where two headings read alike, the source gives them in different places.
Columns and labels:
Experiment in all cases: selectivity profiling in a panel of 340 wild-type kinases (Reaction Biology Europe)
Type in all cases: binding
340 wild-type kinases [1] = biological target: T1, 340 wild-type kinases (Homo sapiens, UniProt O43318)
T1 construct: purchased Reaction Biology Europe
T1 sequence (O43318 1-606): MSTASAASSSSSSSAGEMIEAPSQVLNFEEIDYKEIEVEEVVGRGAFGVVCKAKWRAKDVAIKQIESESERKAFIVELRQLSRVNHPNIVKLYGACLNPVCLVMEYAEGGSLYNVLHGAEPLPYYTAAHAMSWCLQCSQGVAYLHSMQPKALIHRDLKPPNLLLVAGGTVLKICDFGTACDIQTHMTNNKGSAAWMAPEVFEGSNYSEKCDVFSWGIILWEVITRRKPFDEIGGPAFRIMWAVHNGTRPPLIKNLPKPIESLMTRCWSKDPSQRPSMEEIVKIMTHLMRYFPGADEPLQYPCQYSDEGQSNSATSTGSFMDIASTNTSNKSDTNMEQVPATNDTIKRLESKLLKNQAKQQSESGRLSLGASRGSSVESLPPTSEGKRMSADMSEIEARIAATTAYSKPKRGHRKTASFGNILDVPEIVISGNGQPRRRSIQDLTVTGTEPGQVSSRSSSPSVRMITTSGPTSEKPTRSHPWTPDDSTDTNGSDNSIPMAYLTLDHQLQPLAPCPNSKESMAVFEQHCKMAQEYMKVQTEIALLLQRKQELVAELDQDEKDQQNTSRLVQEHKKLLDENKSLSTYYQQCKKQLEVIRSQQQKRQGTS

340 wild-type kinases [2] = biological target: T2, 340 wild-type kinases (Homo sapiens, UniProt P30530)
T2 construct: purchased Reaction Biology Europe
T2 sequence (P30530 26-894): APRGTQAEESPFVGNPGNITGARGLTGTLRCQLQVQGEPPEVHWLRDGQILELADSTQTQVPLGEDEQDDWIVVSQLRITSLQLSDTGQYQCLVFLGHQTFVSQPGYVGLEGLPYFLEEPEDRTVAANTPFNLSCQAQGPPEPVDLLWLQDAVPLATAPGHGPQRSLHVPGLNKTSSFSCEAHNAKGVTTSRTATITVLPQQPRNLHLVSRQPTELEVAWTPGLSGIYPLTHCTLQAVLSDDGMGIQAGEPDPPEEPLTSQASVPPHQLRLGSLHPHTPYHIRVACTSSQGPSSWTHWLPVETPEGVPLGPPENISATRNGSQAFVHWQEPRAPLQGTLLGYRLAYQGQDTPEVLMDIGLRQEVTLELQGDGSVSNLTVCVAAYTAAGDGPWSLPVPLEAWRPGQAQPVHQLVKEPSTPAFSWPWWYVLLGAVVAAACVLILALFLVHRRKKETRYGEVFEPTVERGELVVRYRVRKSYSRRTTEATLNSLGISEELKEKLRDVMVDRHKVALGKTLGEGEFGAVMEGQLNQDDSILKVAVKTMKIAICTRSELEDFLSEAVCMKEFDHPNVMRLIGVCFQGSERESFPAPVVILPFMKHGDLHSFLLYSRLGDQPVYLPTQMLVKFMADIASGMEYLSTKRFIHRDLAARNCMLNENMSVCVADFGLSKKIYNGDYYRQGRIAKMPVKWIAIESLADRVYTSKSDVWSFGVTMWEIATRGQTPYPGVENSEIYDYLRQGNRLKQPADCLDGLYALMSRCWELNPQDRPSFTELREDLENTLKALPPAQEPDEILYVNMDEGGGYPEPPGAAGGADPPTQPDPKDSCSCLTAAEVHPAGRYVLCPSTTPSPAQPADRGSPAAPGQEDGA

340 wild-type kinases [3] = biological target: T3, 340 wild-type kinases (Homo sapiens, UniProt P15056)
T3 construct: purchased Reaction Biology Europe

340 wild-type kinases [4] = biological target: T4, 340 wild-type kinases (Homo sapiens, UniProt Q9Y6M4)
T4 construct: purchased Reaction Biology Europe

340 wild-type kinases [5] = biological target: T5, 340 wild-type kinases (Homo sapiens, UniProt P00519)
T5 construct: purchased Reaction Biology Europe

340 wild-type kinases [6] = biological target: T6, 340 wild-type kinases (Homo sapiens, UniProt Q8N5S9)
T6 construct: purchased Reaction Biology Europe

340 wild-type kinases [7] = biological target: T7, 340 wild-type kinases (Homo sapiens, UniProt Q9UPE1)
T7 construct: purchased Reaction Biology Europe

340 wild-type kinases [8] = biological target: T8, 340 wild-type kinases (Homo sapiens, UniProt O75716)
T8 construct: purchased Reaction Biology Europe
T8 sequence (O75716 whole entry): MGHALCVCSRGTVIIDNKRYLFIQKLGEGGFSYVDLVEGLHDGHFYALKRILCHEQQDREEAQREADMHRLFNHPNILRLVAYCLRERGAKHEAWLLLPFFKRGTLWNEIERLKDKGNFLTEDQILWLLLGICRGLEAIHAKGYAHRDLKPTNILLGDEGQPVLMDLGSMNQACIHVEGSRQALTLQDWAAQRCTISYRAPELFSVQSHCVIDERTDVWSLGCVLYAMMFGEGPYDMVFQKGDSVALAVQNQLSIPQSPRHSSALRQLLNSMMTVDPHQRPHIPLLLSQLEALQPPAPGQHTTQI

T4 sequence (Q9Y6M4 whole entry): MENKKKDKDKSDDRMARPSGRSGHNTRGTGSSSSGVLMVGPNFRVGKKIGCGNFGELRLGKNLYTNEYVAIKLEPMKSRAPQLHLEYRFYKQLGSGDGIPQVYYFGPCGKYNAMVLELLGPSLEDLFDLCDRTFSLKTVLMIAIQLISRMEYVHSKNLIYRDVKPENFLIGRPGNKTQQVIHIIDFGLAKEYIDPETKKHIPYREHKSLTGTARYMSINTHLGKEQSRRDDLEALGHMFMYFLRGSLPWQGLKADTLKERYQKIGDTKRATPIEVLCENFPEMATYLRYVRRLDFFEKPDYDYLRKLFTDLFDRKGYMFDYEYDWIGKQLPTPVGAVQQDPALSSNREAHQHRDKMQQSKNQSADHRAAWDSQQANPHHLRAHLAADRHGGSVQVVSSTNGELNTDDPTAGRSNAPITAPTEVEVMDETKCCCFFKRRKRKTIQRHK
T3 sequence (P15056 whole entry): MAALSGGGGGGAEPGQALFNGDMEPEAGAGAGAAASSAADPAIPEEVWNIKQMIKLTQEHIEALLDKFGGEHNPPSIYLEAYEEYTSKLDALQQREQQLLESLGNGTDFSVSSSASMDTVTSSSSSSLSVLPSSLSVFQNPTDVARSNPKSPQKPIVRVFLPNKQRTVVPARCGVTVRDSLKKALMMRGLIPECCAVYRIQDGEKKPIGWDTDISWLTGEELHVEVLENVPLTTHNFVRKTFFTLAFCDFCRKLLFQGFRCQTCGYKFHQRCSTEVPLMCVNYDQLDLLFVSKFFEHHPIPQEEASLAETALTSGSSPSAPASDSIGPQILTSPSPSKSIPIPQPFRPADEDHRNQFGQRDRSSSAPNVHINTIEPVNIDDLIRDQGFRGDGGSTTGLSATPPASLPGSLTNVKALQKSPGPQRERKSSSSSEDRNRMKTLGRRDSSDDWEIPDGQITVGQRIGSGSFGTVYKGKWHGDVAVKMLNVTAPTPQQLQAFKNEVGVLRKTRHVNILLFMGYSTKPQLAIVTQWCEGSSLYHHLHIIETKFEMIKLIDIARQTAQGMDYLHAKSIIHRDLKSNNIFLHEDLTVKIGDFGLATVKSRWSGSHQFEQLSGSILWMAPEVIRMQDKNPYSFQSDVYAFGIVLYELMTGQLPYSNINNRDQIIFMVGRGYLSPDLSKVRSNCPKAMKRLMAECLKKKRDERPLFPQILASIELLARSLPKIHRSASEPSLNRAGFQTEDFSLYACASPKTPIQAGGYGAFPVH
T5 sequence (P00519 whole entry): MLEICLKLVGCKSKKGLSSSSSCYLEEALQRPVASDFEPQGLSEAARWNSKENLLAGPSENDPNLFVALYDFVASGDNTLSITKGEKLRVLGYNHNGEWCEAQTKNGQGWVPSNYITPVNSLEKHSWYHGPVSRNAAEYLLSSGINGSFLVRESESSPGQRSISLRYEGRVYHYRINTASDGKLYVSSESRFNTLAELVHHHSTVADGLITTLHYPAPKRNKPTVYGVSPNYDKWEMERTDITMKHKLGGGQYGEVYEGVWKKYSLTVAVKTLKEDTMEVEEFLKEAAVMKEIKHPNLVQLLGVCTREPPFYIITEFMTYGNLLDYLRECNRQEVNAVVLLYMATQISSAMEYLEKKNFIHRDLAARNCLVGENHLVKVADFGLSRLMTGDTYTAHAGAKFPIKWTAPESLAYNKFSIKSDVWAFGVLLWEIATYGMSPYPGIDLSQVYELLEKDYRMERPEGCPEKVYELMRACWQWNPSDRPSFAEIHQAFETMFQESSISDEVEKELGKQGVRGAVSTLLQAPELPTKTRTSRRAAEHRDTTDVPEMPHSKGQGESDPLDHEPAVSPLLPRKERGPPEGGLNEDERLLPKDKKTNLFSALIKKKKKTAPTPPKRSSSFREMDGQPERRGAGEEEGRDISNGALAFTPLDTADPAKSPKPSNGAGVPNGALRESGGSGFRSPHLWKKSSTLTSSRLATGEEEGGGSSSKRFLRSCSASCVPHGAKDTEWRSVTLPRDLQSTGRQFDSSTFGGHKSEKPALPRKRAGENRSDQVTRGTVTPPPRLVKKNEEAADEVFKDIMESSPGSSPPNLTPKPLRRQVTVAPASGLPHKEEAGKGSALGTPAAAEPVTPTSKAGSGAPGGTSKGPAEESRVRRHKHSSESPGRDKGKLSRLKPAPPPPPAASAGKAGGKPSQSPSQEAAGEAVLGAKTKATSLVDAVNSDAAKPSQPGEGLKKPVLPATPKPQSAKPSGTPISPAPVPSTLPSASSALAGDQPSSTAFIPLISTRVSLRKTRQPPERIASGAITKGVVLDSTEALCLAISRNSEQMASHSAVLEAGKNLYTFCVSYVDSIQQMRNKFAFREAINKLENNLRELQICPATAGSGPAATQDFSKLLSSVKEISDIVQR
T6 sequence (Q8N5S9 whole entry): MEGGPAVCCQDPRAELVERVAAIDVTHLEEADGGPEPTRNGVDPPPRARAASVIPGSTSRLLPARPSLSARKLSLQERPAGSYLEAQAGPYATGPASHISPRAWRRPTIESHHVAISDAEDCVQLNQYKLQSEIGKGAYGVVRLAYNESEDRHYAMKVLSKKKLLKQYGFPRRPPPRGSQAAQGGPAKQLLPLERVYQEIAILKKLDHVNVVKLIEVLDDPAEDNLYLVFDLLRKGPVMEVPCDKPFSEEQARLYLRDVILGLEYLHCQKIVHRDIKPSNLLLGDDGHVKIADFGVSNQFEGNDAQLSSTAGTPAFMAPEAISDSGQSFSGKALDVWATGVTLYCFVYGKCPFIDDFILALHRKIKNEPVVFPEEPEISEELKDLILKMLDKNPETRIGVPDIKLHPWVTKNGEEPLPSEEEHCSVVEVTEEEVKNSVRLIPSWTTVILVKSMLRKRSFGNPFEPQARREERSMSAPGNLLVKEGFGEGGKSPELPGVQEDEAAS
T7 sequence (Q9UPE1 whole entry): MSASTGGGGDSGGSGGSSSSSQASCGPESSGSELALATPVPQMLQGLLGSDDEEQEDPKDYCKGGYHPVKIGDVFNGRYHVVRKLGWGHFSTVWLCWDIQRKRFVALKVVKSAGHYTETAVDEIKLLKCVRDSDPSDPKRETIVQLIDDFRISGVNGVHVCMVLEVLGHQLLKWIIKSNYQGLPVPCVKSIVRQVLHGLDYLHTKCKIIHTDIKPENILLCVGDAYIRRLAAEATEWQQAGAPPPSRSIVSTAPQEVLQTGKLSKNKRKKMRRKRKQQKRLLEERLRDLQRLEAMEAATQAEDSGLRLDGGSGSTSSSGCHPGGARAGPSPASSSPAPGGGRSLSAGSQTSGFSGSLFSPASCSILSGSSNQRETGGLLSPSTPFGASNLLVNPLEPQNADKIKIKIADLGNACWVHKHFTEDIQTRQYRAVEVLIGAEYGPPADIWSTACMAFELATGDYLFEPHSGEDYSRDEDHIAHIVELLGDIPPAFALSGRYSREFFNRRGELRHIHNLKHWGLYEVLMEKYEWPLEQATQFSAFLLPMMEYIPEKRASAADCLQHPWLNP

In the case of CNC(=O)c1ccc2c(c1)C(=O)c1ccc(Nc3ccc(F)c(NC(=O)C4CC4)c3)cc1CC2 [Compound 2015], the remaining activity at 0.2 µM (340 wild-type kinases [1]; 0.2 µM 2015, read-out: MAP3K7/MAP3K7IP1 residual activity) is reported as 96.8%, the remaining activity at 1 µM (340 wild-type kinases [1]; 1 µM 2015, read-out: MAP3K7/MAP3K7IP1 residual activity) is reported as 93.9% and the remaining activity at 1 µM (340 wild-type kinases [1]; MAP3K7/MAP3K7IP1, 1 µM, read-out: residual activity) is reported as 93.9%. The remaining activity at 0.2 µM (340 wild-type kinases [2]; 0.2 µM 2015, read-out: AXL residual activity) was 106%, the remaining activity at 1 µM (340 wild-type kinases [2]; 1 µM 2015, read-out: AXL residual activity) was 92.6% and the remaining activity at 0.2 µM (340 wild-type kinases [2]; AXL, 0.2 µM, read-out: residual activity) was 106%. The remaining activity at 1 µM (340 wild-type kinases [2]; AXL, 1 µM, read-out: residual activity) was 92.6%, the remaining activity at 0.2 µM (340 wild-type kinases [3]; 0.2 µM 2015, read-out: BRAF residual activity) was 93.9% and the remaining activity at 1 µM (340 wild-type kinases [3]; 1 µM 2015, read-out: BRAF residual activity) was 104%. It also gave a remaining activity at 0.2 µM (340 wild-type kinases [3]; BRAF, 0.2 µM, read-out: residual activity) of 94%, a remaining activity at 1 µM (340 wild-type kinases [3]; BRAF, 1 µM, read-out: residual activity) of 104% and a remaining activity at 0.2 µM (340 wild-type kinases [4]; 0.2 µM 2015, read-out: CK1gamma3 residual activity) of 93.4%. For the same molecule, the remaining activity at 1 µM (340 wild-type kinases [4]; 1 µM 2015, read-out: CK1gamma3 residual activity) was 91%, the remaining activity at 0.2 µM (340 wild-type kinases [4]; CK1gamma3, 0.2 µM, read-out: residual activity) was 93.4% and the remaining activity at 1 µM (340 wild-type kinases [4]; CK1gamma3, 1 µM, read-out: residual activity) was 91%. The remaining activity at 0.2 µM (340 wild-type kinases [5]; 0.2 µM 2015, read-out: ABL1 residual activity) was 108%, the remaining activity at 1 µM (340 wild-type kinases [5]; 1 µM 2015, read-out: ABL1 residual activity) was 99.6% and the remaining activity at 0.2 µM (340 wild-type kinases [5]; ABL1, 0.2 µM, read-out: residual activity) was 108%. For the same molecule, the remaining activity at 1 µM (340 wild-type kinases [5]; ABL1, 1 µM, read-out: residual activity) was 99.6%, the remaining activity at 0.2 µM (340 wild-type kinases [6]; 0.2 µM 2015, read-out: CAMKK1 residual activity) was 123% and the remaining activity at 1 µM (340 wild-type kinases [6]; 1 µM 2015, read-out: CAMKK1 residual activity) was 106%. The remaining activity at 0.2 µM (340 wild-type kinases [6]; CAMKK1, 0.2 µM, read-out: residual activity) was 123%, the remaining activity at 1 µM (340 wild-type kinases [6]; CAMKK1, 1 µM, read-out: residual activity) was 106% and the remaining activity at 0.2 µM (340 wild-type kinases [7]; 0.2 µM 2015, read-out: STK23 residual activity) was 90.7%. It also gave a remaining activity at 1 µM (340 wild-type kinases [7]; 1 µM 2015, read-out: STK23 residual activity) of 94.1%, a remaining activity at 0.2 µM (340 wild-type kinases [7]; STK23, 0.2 µM, read-out: residual activity) of 90.7% and a remaining activity at 0.2 µM (340 wild-type kinases [8]; 0.2 µM 2015, read-out: TSF1 residual activity) of 95.7%. It also gave a remaining activity at 1 µM (340 wild-type kinases [8]; 1 µM 2015, read-out: TSF1 residual activity) of 85.7%, a remaining activity at 0.2 µM (340 wild-type kinases [8]; TSF1, 0.2 µM, read-out: residual activity) of 95.7% and a remaining activity at 1 µM (340 wild-type kinases [8]; TSF1, 1 µM, read-out: residual activity) of 85.7%.

Source: paper PMC11864979, “First-in-class ultralong-target-residence-time p38α inhibitors as a mitosis-targeted therapy for colorectal cancer” (Nature Cancer, 2025)
